The subject of one assay is Sarcoma-180 cells. Briefly: Antineoplastic activity, mice having Sarcoma-180 cells transplanted subcutaneously. Particulars: Mus musculus, Sarcoma-180, iv, 144 h, read-out: T/C (average tumor weight, dosed vs. solvent-dosed control); for response vs control in vivo at 0.125 mg/kg: i.v. 0.125 mg/kg single dose. Type of assay: in vivo, mouse (female, CDR strain). As for the experimental part:
The test compound was dissolved in dimethylsulfoxide, and the solution was adequately diluted with 10% Emulfore EL620(produced by Rhone Poulenc Co.) to prepare the test compound solution. The antineoplastic activity was evaluated as below.
To the lateral region of a female mouse (CDR strain, 5 to 6 week age), 3.6×10^6 to 5×10^6 Sarcoma-180 cells were transplanted subcutaneously. Next day, the test medicine solution was injected into the tail vein in a single dose. Eight to twelve mice were employed for the solvent-dosed control group, and five mice were employed for the dosed group. Six days after the dosage, the tumor was cut out, and the weight thereof was measured. The antineoplastic effect was evaluated by the ratio (T/C) of the average tumor weight of the dosed group (T) to the average tumor weight of the solvent-dosed control group (C).

Assay [1] deals with P388 mouse leukemia cells. Briefly: Activity against tumor cell growth (P388, MTT, 72 h). It counts as cell-based. Conditions: P388 mouse leukemia cells, 72 h, 37° C., MTT; read-out: IC50 (50% growth inhibition concentration). As to the method:
Using a culture medium RPMI1640 supplemented with 10% inactivated bovine fetal serum, 2 mM glutamine, 100 μ/ml kanamycin sulfate, and 5 μM 2-hydroxyethyldisulfide (This culture medium is hereinafter referred to simply as "culture medium"), P388 mouse leukemia cells were diluted to a concentration of 1.5×10^5 cells/ml in the culture medium, and were placed in each well of 96-well multiplate in 60 μl portions. Separately, the test compound was dissolved in dimethylsulfoxide and was adequately diluted with the culture medium. The diluted solution containing test compound was added to the wells of the above plate respectively in 60 μl portions. Then the cells were incubated in a CO2 -incubator (5% CO2, 37° C.) for 72 hours.
The surviving cell numbers were measured according to the Mosmann's method (J. Immunol. Meth., 65 55-63, 1983) as follows. A 2.5 mg/ml solution of MTT (3-[4,5-dimethylthiazol-2-yl]-2,5-diphenyltetrazolium bromide) in Dulbecco's phosphate buffer solution (PBS) was prepared and added to each of the wells by 20 μl. The cells were further incubated for 3 hours. A 150 μl portion of 0.04N hydrochloric acid-isopropanol solution was added to each of the wells, and MTT-formazane formed was allowed to dissolve by pipetting. The absorbance of the solutions was measured at 540 nm taking the no-cell-containing [solution as the background. The 50% growth inhibition concentration (ICs50) was calculated from ratio of the absorbances of the treated samples to the absorbance of the no-medicine-treated sample, and from the concentration of the test compound.

Where [2] appears, read: i.v. 0.25 mg/kg single dose, tumor weighed six days after dosage.
Setting [3] is: tumor weighed six days after dosage.

The source of these data is US5629430A, “Trifluoromethylpyrroloindolecarboxylic acid ester and process for production thereof” (Kyorin Pharmaceutical Co., Ltd., priority 1992, dated 1997).

Converted amounts (≈) assume the structure as drawn. Structures can show the parent of a compound that is named as a salt. Where two headings read alike, the source gives them in different places.

With `COC(=O)c1c(C(F)(F)F)[nH]c2c(OC(=O)N3CCN(C)CC3)cc3c(c12)C(CCl)CN3C(=O)c1cc2cc(NC(=O)c3cc4cc(OC)c(OC)c(OC)c4[nH]3)ccc2[nH]1` (centres unmarked) [Example 51, Methyl 1-chloromethyl-5-(4-methylpiperazin-1-ylcarbonyl)oxy-7-trifluoromethyl-3-[5-[(5,6,7-trimethoxy1H-indol-2-ylcarbonyl)amino]-1H-indol-2-ylcarbonyl)-1,2,3,6tetrahydropyrrolo[3,2-e]indol, e-8-carboxylate], in the assay on Sarcoma-180 cells, the response vs control in vivo at 4 mg/kg is 25%.
On to `COC(=O)c1c(C(F)(F)F)[nH]c2c(O)cc3c(c12)C(CBr)CN3C(=O)c1cc2cc(NC(=O)c3cc4ccccc4o3)ccc2[nH]1` (centres unmarked) [Example 37, Methyl 3-[5-[(benzofuran-2-ylcarbonyl)amino]-1H-indol-2-ylcarbonyl]-1-bromomethyl-5-hydroxy-7-trifluoromethyl-1,2,3,6-tetrahydropyrrolo[3,2-e]indole-8-carboxylate], for which, in assay [1], the IC50 came to 0.61 ng/mL (≈ 0.877 nM). In addition, the response vs control in vivo at 0.25 mg/kg in the assay with Sarcoma-180 cells (setting [2]) was found to be 24%.
In the case of `COC(=O)c1c(C(F)(F)F)[nH]c2c1C13CC1CN(C(=O)c1cc4cc(NC(=O)c5cc6ccccc6cn5)ccc4[nH]1)C3=CC2=O` (centres unmarked) [Example 31, Methyl 3-[5-[(isoquinolin-3-ylcarbonyl)amino]-1H-indol-2-ylcarbonyl]-6-trifluoromethyl-1,2,8,8a-tetrahydrocyclopropa[c]pyrrolo[3,2-e]indol-4 (5H)-one-7-carboxylate], the IC50 in assay [1] worked out at 0.1 ng/mL (≈ 0.16 nM). Besides, the response vs control in vivo at 0.125 mg/kg in the assay with Sarcoma-180 cells (setting [3]) came out at 24%.
Regarding `COC(=O)c1c(C(F)(F)F)[nH]c2c(O)cc3c(c12)C(CCl)CN3C(=O)c1cc2cc(NC(=O)c3cc4cccc(OC)c4o3)ccc2[nH]1` (centres unmarked) [Example 11, Methyl 1-chloromethyl-5-hydroxy-3-[5-[(7-methoxybenzofuran-2-ylcarbonyl)amino]-1H-indol-2-ylcarbonyl]-7-trifluoromethyl-1,2,3,6-tetrahydropyrrolo[3,2-e]indole-8-carboxylate], in assay [1], the IC50 is 0.67 ng/mL (≈ 0.984 nM). Also, the response vs control in vivo at 1 mg/kg in the assay on Sarcoma-180 cells (i.v. 1.0 mg/kg single dose, tumor weighed six days after dosage) came out at 6%.
`COC(=O)c1c(C(F)(F)F)[nH]c2c1C13CC1CN(C(=O)c1cc4cc(NC(=O)c5cc6c(OC)c(OC)c(OC)cc6[nH]5)ccc4[nH]1)C3=CC2=O` (centres unmarked) [Example 28, Methyl 6-trifluoromethyl-2-[5-[(4,5,6-trimethoxy-1-H-indol-2-ylcarbonyl)amino]-1H-indol-2-ylcarbonyl]-1,2,8,8a-tetrahydrocyclopropa[c]pyrrolo[3,2-e]indole-4(5H)-one-7-carboxylate]: the IC50 in assay [1] came out at 0.11 ng/mL (≈ 0.156 nM). In addition, the response vs control in vivo at 0.25 mg/kg in the assay on Sarcoma-180 cells (setting [2]) came to 28%.
As to `COC(=O)c1c(C(F)(F)F)[nH]c2c(O)cc3c(c12)C(CCl)CN3C(=O)c1cc2cc(NC(=O)c3ccc4ccccc4c3)ccc2[nH]1` (centres unmarked) [Example 15, Methyl 1-chloromethyl-5-hydroxy-3-[5-[(naphthalene-3-ylcarbonyl)amino]-1H-indol-2-ylcarbonyl]-7-trifluoromethyl-1,2,3,6-tetrahydropyrrolo[3,2-e]indole-8-carboxylate], the IC50 in assay [1] was 0.83 ng/mL (≈ 1.26 nM). Also, in the assay on Sarcoma-180 cells (i.v. 0.5 mg/kg single dose, tumor weighed six days after dosage), the response vs control in vivo at 0.5 mg/kg was 11%.
For `COC(=O)c1c(C(F)(F)F)[nH]c2c(O)cc3c(c12)C(CBr)CN3C(=O)c1cc2cc(NC(=O)c3cc4ccccc4cn3)ccc2[nH]1` (centres unmarked) [Example 43, Methyl 1-bromomethyl-5-hydroxy-3-[5-[(isoquinolin-3-ylcarbonyl)amino]-1H-indol-2-ylcarbonyl]-7-trifluoromethyl-1,2,3,6-tetrahydropyrrolo[3,2-e]indole-8-carboxylate], in assay [1], the IC50 amounted to 0.1 ng/mL (≈ 0.142 nM). Also, the response vs control in vivo at 0.125 mg/kg in the assay with Sarcoma-180 cells (setting [3]) is 25%.
On to `COC(=O)c1c(C(F)(F)F)[nH]c2c(OC(=O)N3CCN(C)CC3)cc3c(c12)C(CCl)CN3C(=O)c1cc2cc(NC(=O)c3cc4ccccc4cn3)ccc2[nH]1` (centres unmarked) [Example 52, Methyl 1-chloromethyl-5-(4-methylpiperazin-1-ylcarbonyl)oxy-3-[5-[(isoquinolin-3-ylcarbonyl)amino]-1H-indol-2-ylcarbonyl)-7-trifluoromethyl-1,2,3,6-tetrahydropyrrolo[3,2-e]indole-8-carboxylate], for which the response vs control in vivo at 1 mg/kg with Sarcoma-180 cells worked out at 12%.
As to `COC(=O)c1c(C(F)(F)F)[nH]c2c(OC(=O)N3CCN(C)CC3)cc3c(c12)C(CBr)CN3C(=O)c1cc2cc(NC(=O)c3cc4cc(OC)c(OC)c(OC)c4[nH]3)ccc2[nH]1` (centres unmarked) [Example 53, Methyl 1-bromomethyl-5-(4-methylpiperazin-1-ylcarbonyl)oxy-7-trifluoromethyl-3-[5-[(5,6,7-trimethoxy1H-indol-2-ylcarbonyl)amino]1H-indol-2-ylcarbonyl]-1,2,3,6-tetrahydropyrrolo[3,2-e]indole-8-carboxylate], the response vs control in vivo at 4 mg/kg in the assay on Sarcoma-180 cells is 20%.
For `COC(=O)c1c(C(F)(F)F)[nH]c2c(O)cc3c(c12)C(CCl)CN3C(=O)c1cc2cc(NC(=O)c3cc4c(cn3)[nH]c3ccccc34)ccc2[nH]1` (centres unmarked) [Example 19, Methyl 1-chloromethyl-5-hydroxy-3-[5-[(9H-pyrido[3,4-b]indol-3-ylcarbonyl)amino]-1H-indol-2ylcarbonyl]-7-trifluoromethyl-1,2,3,6-tetrahydropyrrolo[3,2e]indole-8-carboxylate], the IC50 in assay [1] was 0.11 ng/mL (≈ 0.157 nM). In the assay on Sarcoma-180 cells (setting [2]), the response vs control in vivo at 0.25 mg/kg was found to be 22%.
For the compound `COC(=O)c1c(C(F)(F)F)[nH]c2c1C13CC1CN(C(=O)c1cc4cc(NC(=O)c5cc6c(OC)c(OC)c(OC)cc6cn5)ccc4[nH]1)C3=CC2=O` (centres unmarked) [Example 32, Methyl 6-trifluoromethyl-2-[5-[(5,6,7-trimethoxyisoquinolin-3-ylcarbonyl)amino]-1H-indol-2-ylcarbonyl]-1,2,8,8a-tetrahydrocyclopropa[c]pyrrolo[3,2e]indol-4 (5H)-one-7-carboxylate], the IC50 in assay [1] was found to be 0.09 ng/mL (≈ 0.126 nM). For the same compound, the response vs control in vivo at 0.125 mg/kg in the assay on Sarcoma-180 cells (setting [3]) is 23%.
Turning to `COC(=O)c1c(C(F)(F)F)[nH]c2c(OC(=O)N3CCN(C)CC3)cc3c(c12)C(CBr)CN3C(=O)c1cc2cc(NC(=O)c3cc4ccccc4cn3)ccc2[nH]1` (centres unmarked) [Example 54, Methyl 1-bromomethyl-5-(4-methylpiperazin-1-ylcarbonyl)oxy-3-[5-[(isoquinolin-3-ylcarbonyl)amino]-1H-indol-2-ylcarbonyl]-7-trifluoromethyl-1,2,3,6-tetrahydropyrrolo[3,2-e]indole-8-carboxylate hydrochloride salt], the response vs control in vivo at 0.25 mg/kg with Sarcoma-180 cells was 15%.
`COC(=O)c1c(C(F)(F)F)[nH]c2c(O)cc3c(c12)[C@H](CCl)CN3C(=O)c1cc2ccc(OC)cc2o1` [Example 68, Methyl (1S)-1-chloromethyl-5-hydroxy-3-(6-methoxybenzofuran-2-ylcarbonyl)-7-trifluoromethyl-1,2,3,6-tetrahydropyrrolo[3,2-e]indole-8-carboxylate]: the IC50 in assay [1] worked out at 0.051 ng/mL (≈ 0.0975 nM).
The same measure, in the same setting: the value for `COC(=O)c1c(C(F)(F)F)[nH]c2c1C13CC1CN(C(=O)c1cc4cc(NC(=O)c5ccc6ccccc6c5)ccc4[nH]1)C3=CC2=O` (centres unmarked) [Example 29, Methyl 3-[5-[(naphthalene-3-ylcarbonyl)amino]1H-indol-2-ylcarbonyl]-6-trifluoromethyl-1,2,8,8a-tetrahydrocyclopropa[c]pyrrolo[3,2-e]indol-4 (5H)-one-7-carboxylate] was 1.2 ng/mL (≈ 1.92 nM); that for `COC(=O)c1c(C(F)(F)F)[nH]c2c(O)cc3c(c12)C(CBr)CN3C(=O)c1cc2cc(NC(=O)c3cc4cc(OC)c(OC)c(OC)c4[nH]3)ccc2[nH]1` (centres unmarked) [Example 39, Methyl 1-bromomethyl-5-hydroxy-7-trifluoromethyl-3-[5[(5,6,7-trimethoxy1H-indol-2-ylcarbonyl)amino]-1H-indol-2-ylcarbonyl]-1,2,3,6-tetrahydropyrrolo[3,2-e]indole-8-carboxylate] was 0.2 ng/mL (≈ 0.255 nM).
